Patent publication US12662479B2 (Foghorn Therapeutics Inc., priority 2020, dated 2026)

What was measured:
[1] = target: T1, HiBit-BRM fusion protein (Homo sapiens, UniProt P51531); test: HiBiT-BRM cell-based degradation assay (Nano-Glo HiBiT Lytic Detection, 24 h); conditions: HeLa cells expressing HiBiT-BRM; for DC50: read-out: BRM HiBit Degradation IC50; for BRM HiBit Degradation Maximum measured: top dose 30 μM
T1 construct: expressed in transfected cells
Procedure, shortened: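 Residual HiBiT-BRM in a stable HeLa line was measured by Nano-Glo lytic luminescence after 24 h compound exposure (top final dose 30 μM, 3-fold, 10 points, duplicate). Values are % degradation, scaled between DMSO-treated cells and cells given 2 μM of a known BRM/BRG1 degrader.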

[2] = target: T2, HiBit-BRG1 fusion protein (Homo sapiens, UniProt P51532); test: HiBiT-BRG1 cell-based degradation assay (Nano-Glo HiBiT Lytic Detection, 24 h); conditions: HeLa cells expressing HiBit-BRG1 and LgBit; for DC50: read-out: BRG1 HiBit Degradation IC50; for Dmax: HeLa, top dose 30 μM, read-out: BRG1 HiBit Degradation Maximum measured
T2 construct: expressed in transfected cells
Procedure, shortened: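 Degradation is scaled from DMSO-treated cells (0%) to cells given 2 μM of a known BRM/BRG1 degrader (100%). HeLa cells stably carrying HiBiT-BRG1 plus LgBiT (5000/well) were lysed with Nano-Glo HiBiT detection reagent, shaken 10 min at RT, and luminescence read.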

T1 sequence (P51531 whole entry, the tested form may be a part): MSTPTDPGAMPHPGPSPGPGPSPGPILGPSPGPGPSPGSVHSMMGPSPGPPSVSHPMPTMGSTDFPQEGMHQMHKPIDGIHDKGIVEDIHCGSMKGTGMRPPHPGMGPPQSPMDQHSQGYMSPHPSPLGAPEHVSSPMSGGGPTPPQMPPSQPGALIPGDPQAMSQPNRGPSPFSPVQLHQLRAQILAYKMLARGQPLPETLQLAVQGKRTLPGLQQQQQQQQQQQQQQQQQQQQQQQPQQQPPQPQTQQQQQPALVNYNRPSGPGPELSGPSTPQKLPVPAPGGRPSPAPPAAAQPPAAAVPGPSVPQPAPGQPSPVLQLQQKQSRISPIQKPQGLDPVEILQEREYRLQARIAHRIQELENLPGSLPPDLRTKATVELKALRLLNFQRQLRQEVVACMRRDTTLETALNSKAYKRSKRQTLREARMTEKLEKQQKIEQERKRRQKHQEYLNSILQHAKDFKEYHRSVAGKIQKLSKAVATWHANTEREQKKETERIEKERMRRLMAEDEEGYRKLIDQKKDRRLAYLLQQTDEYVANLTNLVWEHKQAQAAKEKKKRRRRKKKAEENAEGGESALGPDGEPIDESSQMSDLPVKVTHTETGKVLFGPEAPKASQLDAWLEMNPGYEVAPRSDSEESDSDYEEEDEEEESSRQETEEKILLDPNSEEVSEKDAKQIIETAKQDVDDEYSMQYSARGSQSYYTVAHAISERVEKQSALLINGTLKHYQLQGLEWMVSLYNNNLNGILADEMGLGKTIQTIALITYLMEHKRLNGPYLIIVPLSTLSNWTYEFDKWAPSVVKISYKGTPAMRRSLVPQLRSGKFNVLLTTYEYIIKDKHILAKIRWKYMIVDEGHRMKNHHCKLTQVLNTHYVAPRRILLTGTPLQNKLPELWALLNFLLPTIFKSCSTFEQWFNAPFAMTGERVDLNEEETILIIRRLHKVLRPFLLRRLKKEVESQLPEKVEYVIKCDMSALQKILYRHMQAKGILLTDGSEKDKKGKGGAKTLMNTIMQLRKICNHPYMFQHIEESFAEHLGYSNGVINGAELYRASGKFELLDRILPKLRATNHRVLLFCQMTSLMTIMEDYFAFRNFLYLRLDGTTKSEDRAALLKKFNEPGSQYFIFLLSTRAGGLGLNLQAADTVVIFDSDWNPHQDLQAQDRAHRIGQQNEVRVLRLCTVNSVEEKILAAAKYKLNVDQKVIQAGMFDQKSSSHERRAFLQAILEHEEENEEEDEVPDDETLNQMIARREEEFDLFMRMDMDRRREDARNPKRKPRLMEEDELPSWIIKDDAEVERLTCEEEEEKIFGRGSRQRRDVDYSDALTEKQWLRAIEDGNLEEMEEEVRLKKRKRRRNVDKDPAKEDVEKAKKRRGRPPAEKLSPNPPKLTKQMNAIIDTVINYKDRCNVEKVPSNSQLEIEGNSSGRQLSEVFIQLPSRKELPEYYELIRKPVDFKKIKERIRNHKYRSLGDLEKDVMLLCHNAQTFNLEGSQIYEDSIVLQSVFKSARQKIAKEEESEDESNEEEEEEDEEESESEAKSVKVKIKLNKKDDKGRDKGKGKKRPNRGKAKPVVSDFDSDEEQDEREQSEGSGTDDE
T2 sequence (P51532 whole entry, the tested form may be a part): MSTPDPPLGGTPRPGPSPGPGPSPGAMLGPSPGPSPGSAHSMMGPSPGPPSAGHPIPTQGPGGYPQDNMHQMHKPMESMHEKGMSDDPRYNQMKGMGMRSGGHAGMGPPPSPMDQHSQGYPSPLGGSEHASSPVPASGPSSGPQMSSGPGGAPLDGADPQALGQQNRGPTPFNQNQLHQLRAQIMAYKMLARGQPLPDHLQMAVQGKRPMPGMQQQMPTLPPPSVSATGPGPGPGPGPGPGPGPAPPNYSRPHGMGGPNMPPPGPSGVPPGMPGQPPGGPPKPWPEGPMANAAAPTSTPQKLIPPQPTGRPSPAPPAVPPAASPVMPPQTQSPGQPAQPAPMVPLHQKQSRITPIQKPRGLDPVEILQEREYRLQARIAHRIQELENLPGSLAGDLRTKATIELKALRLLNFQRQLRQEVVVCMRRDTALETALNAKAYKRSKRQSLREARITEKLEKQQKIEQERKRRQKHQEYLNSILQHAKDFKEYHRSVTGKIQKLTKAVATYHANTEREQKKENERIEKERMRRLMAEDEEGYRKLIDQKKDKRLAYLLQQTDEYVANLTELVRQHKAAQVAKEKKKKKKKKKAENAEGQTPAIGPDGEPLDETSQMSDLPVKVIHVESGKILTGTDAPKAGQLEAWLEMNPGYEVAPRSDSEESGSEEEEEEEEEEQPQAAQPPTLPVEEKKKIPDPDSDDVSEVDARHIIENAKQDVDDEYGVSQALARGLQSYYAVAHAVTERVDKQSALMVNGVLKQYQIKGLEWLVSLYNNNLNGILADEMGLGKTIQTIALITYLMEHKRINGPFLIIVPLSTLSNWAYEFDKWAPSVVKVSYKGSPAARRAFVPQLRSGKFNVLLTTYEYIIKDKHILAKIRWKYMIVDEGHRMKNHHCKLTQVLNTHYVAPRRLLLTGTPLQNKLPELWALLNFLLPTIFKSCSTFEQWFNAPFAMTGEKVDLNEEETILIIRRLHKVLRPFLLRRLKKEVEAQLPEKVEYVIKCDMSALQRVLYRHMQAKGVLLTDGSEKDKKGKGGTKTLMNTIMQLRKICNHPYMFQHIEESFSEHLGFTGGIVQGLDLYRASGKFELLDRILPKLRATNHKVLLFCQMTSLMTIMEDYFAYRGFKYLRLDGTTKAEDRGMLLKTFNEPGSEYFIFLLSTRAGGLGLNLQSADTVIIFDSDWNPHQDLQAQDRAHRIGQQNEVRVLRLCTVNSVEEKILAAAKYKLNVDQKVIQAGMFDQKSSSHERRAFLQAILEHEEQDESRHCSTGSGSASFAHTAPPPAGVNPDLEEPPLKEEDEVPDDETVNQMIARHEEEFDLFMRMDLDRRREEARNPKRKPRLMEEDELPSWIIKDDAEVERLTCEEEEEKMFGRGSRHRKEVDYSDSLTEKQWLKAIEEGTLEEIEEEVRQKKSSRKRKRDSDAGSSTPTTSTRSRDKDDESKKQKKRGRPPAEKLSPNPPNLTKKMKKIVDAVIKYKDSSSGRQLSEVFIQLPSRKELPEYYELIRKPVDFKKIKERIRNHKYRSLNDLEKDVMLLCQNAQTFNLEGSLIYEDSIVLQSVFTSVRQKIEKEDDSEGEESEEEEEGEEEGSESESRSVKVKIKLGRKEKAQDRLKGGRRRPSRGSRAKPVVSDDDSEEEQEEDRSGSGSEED

| Compound | DC50 [1] | BRM HiBit Degradation Maximum measured [1] | DC50 [2] | Dmax [2] |
| --- | --- | --- | --- | --- |
| CS(=O)(=O)n1ccc(C(=O)NCC(=O)Nc2nc(-c3cccc(-c4ccnc(C5(C(=O)NCCCCCNc6cccc7c6C(=O)N(C6CCC(=O)NC6=O)C7=O)CC5)c4)c3)cs2)c1 (centres unmarked) [Compound 12, N-(2-((4-(3-(2-(1-((5-((2-(2,6-dioxopiperidin-3-yl)-1,3-dioxoisoindolin-4-yl)amino)pentyl)carbamoyl)cyclopropyl)-pyridin-4-yl)phenyl)thiazol-2-yl)amino)-2-oxoethyl)-1-(methylsulfonyl)-1H-pyrrole-3-carboxamide] | > 10000 nM | C (‘C’ = Maximum degradation <50%) | 100 to 1000 nM | > 75% |
| CS(=O)(=O)n1ccc(C(=O)N[C@@H](COCc2ccc(C(=O)NCCOc3cccc(OCCNc4ccc5c(c4)C(=O)N(C4CCC(=O)NC4=O)C5=O)c3)cc2)C(=O)Nc2nc(-c3ccccc3)cs2)c1 (stereo partly drawn) [Compound 207, N-[2-[3-(2-[[2-(2,6-dioxopiperidin-3-yl)-1,3-dioxoisoindol-5-yl]amino]ethoxy)phenoxy]ethyl]-4-[[(2S)-2-[(1-methanesulfonylpyrrol-3-yl)formamido]-2-[(4-phenyl-1,3-thiazol-2-yl)carbamoyl]ethoxy]methyl]benzamide] | 100 to 1000 nM | B (‘B’ = Maximum degradation ≥50% and ≤75%) | 100 to 1000 nM | 50 to 75% |
| CS(=O)(=O)n1ccc(C(=O)N[C@@H](COCc2ccc(CNC(=O)CCOCCOCCOc3ccc4c(c3)C(=O)N(C3CCC(=O)NC3=O)C4=O)cc2)C(=O)Nc2nc(-c3ccccc3)cs2)c1 (stereo partly drawn) [Compound 217, 3-[2-(2-[[2-(2,6-dioxopiperidin-3-yl)-1,3-dioxoisoindol-5-yl]oxy]ethoxy)ethoxy]-N-[(4-[[(2S)-2-[(1-methanesulfonylpyrrol-3-yl)formamido]-2-[(4-phenyl-1,3-thiazol-2-yl)carbamoyl]ethoxy]methyl]phenyl)methyl]propanamide] | 100 to 1000 nM | B (‘B’ = Maximum degradation ≥50% and ≤75%) | 100 to 1000 nM | 50 to 75% |
| CN(CC(=O)NCCCCCCCCNc1ccc2c(c1)C(=O)N(C1CCC(=O)NC1=O)C2=O)c1cc(-c2cccc(-c3csc(NC(=O)CNC(=O)c4ccn(S(C)(=O)=O)c4)n3)c2)ccn1 (centres unmarked) [Compound 92] | > 10000 nM | C (‘C’ = Maximum degradation <50%) | > 10000 nM | < 50% |
| CS(=O)(=O)n1ccc(C(=O)NCC(=O)Nc2nc(-c3cccc(-c4ccnc(C5(C(=O)NCCCCCCNc6ccc7c(c6)CN(C6CCC(=O)NC6=O)C7=O)CC5)c4)c3)cs2)c1 (centres unmarked) [Compound 53, N-(6-[[2-(2,6-dioxopiperidin-3-yl)-1-oxo-3H-isoindol-5-yl]amino]hexyl)-1-[4-[3-(2-[2-[(1-methanesulfonylpyrrol-3-yl)formamido]acetamido]-1,3-thiazol-4-yl)phenyl]pyridin-2-yl]cyclopropane-1-carboxamide] | < 100 nM | A (‘A’ = Maximum degradation >75%) | < 100 nM | > 75% |
| Cc1ncsc1-c1ccc(CNC(=O)[C@@H]2C[C@@H](O)CN2C(=O)[C@@H](NC(=O)COCCOCCNC(=O)CCCOC[C@H](NC(=O)c2ccn(S(C)(=O)=O)c2)C(=O)Nc2nc(-c3ccccc3)cs2)C(C)(C)C)cc1 [Compound 173, (2S,4R)-4-hydroxy-1-[(2S)-2-[2-[2-(2-[4-[(2S)-2-[(1-methanesulfonylpyrrol-3-yl)formamido]-2-[(4-phenyl-1,3-thiazol-2-yl)carbamoyl]ethoxy]butanamido]ethoxy)ethoxy]acetamido]-3,3-dimethylbutanoyl]-N-[[4-(4-methyl-1,3-thiazol-5-yl)phenyl]methyl]pyrrolidine-2-carboxamide] | > 10000 nM | C (‘C’ = Maximum degradation <50%) | > 10000 nM | < 50% |
| CS(=O)(=O)n1ccc(C(=O)NCC(=O)Nc2nc(-c3cccc(-c4ccnc(C5(C(=O)NCC6CCN(CCOc7ccc8c(c7)C(=O)N(C7CCC(=O)NC7=O)C8=O)CC6)CC5)c4)c3)cs2)c1 (centres unmarked) [Compound 149, N-[[1-(2-[[2-(2,6-dioxopiperidin-3-yl)-1,3-dioxoisoindol-5-yl]oxy]ethyl)piperidin-4-yl]methyl]-1-[4-[3-(2-[2-[(1-methanesulfonylpyrrol-3-yl)formamido]acetamido]-1,3-thiazol-4-yl)phenyl]pyridin-2-yl]cyclopropane-1-carboxamide] | 100 to 1000 nM | A (‘A’ = Maximum degradation >75%) | 100 to 1000 nM | > 75% |
| Cc1ncsc1-c1ccc(CNC(=O)[C@@H]2C[C@@H](O)CN2C(=O)[C@@H](NC(=O)COCCOCC(=O)NCCOc2cc(-c3cccc(-c4csc(NC(=O)CNC(=O)c5ccn(S(C)(=O)=O)c5)n4)c3)ccn2)C(C)(C)C)cc1 [Compound 71, N-(2-((4-(3-(2-(((S)-13-((2S,4R)-4-hydroxy-2-((4-(4-methylthiazol-5-yl)benzyl)carbamoyl)pyrrolidine-1-carbonyl)-14,14-dimethyl-4,11-dioxo-6,9-dioxa-3,12-diazapentadecyl)oxy)pyridin-4-yl)phenyl)thiazol-2-yl)amino)-2-oxoethyl)-1-(methylsulfonyl)-1H-pyrrole-3-carboxamide] | > 10000 nM | C (‘C’ = Maximum degradation <50%) | > 10000 nM | < 50% |
| CS(=O)(=O)n1ccc(C(=O)NCC(=O)Nc2nc(-c3cccc(-c4ccnc(N5CCN(C(=O)CCCCCCCCCCNc6ccc7c(c6)C(=O)N(C6CCC(=O)NC6=O)C7=O)CC5)c4)c3)cs2)c1 (centres unmarked) [Compound 35, N-[2-[[4-[3-[2-[4-[11-[[2-(2,6-dioxo-3-piperidyl)-1,3-dioxo-isoindolin-5-yl]amino]undecanoyl]piperazin-1-yl]-4-pyridyl]phenyl]thiazol-2-yl]amino]-2-oxo-ethyl]-1-methylsulfonyl-pyrrole-3-carboxamide] | 100 to 1000 nM | A (‘A’ = Maximum degradation >75%) | < 100 nM | > 75% |
| CS(=O)(=O)n1ccc(C(=O)NCC(=O)Nc2nc(-c3cccc(-c4ccnc(C5(C(=O)N6CCN(c7ccc8c(c7)C(=O)N(C7CCC(=O)NC7=O)C8=O)CC6)CC5)c4)c3)cs2)c1 (centres unmarked) [Compound 132, N-(4-[3-[2-(1-[4-[2-(2,6-dioxopiperidin-3-yl)-1,3-dioxoisoindol-5-yl]piperazine-1-carbonyl]cyclopropyl)pyridin-4-yl]phenyl]-1,3-thiazol-2-yl)-2-[(1-methanesulfonylpyrrol-3-yl)formamido]acetamide] | > 10000 nM | C (‘C’ = Maximum degradation <50%) | > 10000 nM | < 50% |

The remaining lines, values ahead:

| DC50 [1] | BRM HiBit Degradation Maximum measured [1] | DC50 [2] | Dmax [2] | Compound |
| --- | --- | --- | --- | --- |
| > 10000 nM | C (‘C’ = Maximum degradation <50%) | > 10000 nM | < 50% | CS(=O)(=O)n1ccc(C(=O)N[C@@H](COCc2ccc(CNC(=O)CCCCOc3cccc4c3C(=O)N(C3CCC(=O)NC3=O)C4=O)cc2)C(=O)Nc2nc(-c3ccccc3)cs2)c1 (stereo partly drawn) [Compound 212, 5-[[2-(2,6-dioxopiperidin-3-yl)-1,3-dioxoisoindol-4-yl]oxy]-N-[(4-[[(2S)-2-[(1-methanesulfonylpyrrol-3-yl)formamido]-2-[(4-phenyl-1,3-thiazol-2-yl)carbamoyl]ethoxy]methyl]phenyl)methyl]pentanamide] |
| > 10000 nM | C (‘C’ = Maximum degradation <50%) | > 10000 nM | < 50% | CS(=O)(=O)n1ccc(C(=O)N[C@@H](COCc2ccc(CNC(=O)CCOCCOCCOc3cccc4c3C(=O)N(C3CCC(=O)NC3=O)C4=O)cc2)C(=O)Nc2nc(-c3ccccc3)cs2)c1 (stereo partly drawn) [Compound 182, 3-[2-(2-[[2-(2,6-dioxopiperidin-3-yl)-1,3-dioxoisoindol-4-yl]oxy]ethoxy)ethoxy]-N-[(4-[[(2S)-2-[(1-methanesulfonylpyrrol-3-yl)formamido]-2-[(4-phenyl-1,3-thiazol-2-yl)carbamoyl]ethoxy]methyl]phenyl)methyl]propanamide] |
| > 10000 nM | C (‘C’ = Maximum degradation <50%) | 100 to 1000 nM | 50 to 75% | CS(=O)(=O)n1ccc(C(=O)NCC(=O)Nc2nc(-c3cccc(-c4cccc(CNC(=O)CCOCCOCCNc5cccc6c5C(=O)N(C5CCC(=O)NC5=O)C6=O)c4)c3)cs2)c1 (centres unmarked) [Compound 42, N-(2-((4-(3′-((3-(2-(2-((2-(2,6-dioxopiperidin-3-yl)-1,3-dioxoisoindolin-4-yl)amino)ethoxy)ethoxy)propanamido)-methyl)-[1,1′-biphenyl]-3-yl)thiazol-2-yl)amino)-2-oxoethyl)-1-(methylsulfonyl)-1H-pyrrole-3-carboxamide] |
| > 10000 nM | C (‘C’ = Maximum degradation <50%) | > 10000 nM | < 50% | CS(=O)(=O)n1ccc(C(=O)N[C@@H](COCc2ccc(C(=O)N3CCN(CC4CN(c5ccc6c(c5)C(=O)N(C5CCC(=O)NC5=O)C6=O)C4)CC3)cc2)C(=O)Nc2nc(-c3ccccc3)cs2)c1.O=CO (stereo partly drawn) [Compound 231, (2S)-3-([4-[4-([1-[2-(2,6-dioxopiperidin-3-yl)-1,3-dioxoisoindol-5-yl]azetidin-3-yl]methyl)piperazine-1-carbonyl]phenyl]methoxy)-2-[(1-methanesulfonylpyrrol-3-yl)formamido]-N-(4-phenyl-1,3-thiazol-2-yl)propanamide; formic acid] |
